# Test results: ChEMBL document CHEMBL5634083, “Targeting polyketide synthase 13 for the treatment of tuberculosis” (Eur J Med Chem, 2023)
# Experiments:
# [1] = tested on: Mycobacterium tuberculosis; assay: Antimycobacterial activity against Mycobacterium tuberculosis H37Rv assessed as microbial growth inhibition measured after 3 days by alamar blue assay; format: functional; details: 72 h, time 3 day
# [2] = tested on: Mycobacterium tuberculosis; assay: Antimycobacterial activity against Mycobacterium tuberculosis H37Rv assessed as reduction in bacterial growth incubated for 7 days by resazurin based assay; format: functional; details: 168 h, time 7 day
# [3] = tested on: Mycobacterium tuberculosis; assay: Antimycobacterial activity against Mycobacterium tuberculosis H37Rv assessed as reduction in bacterial growth; format: functional
# [4] = tested on: HepG2; assay: Cytotoxicity against human HepG2 cells assessed as reduction in cell growth; format: functional, cell-based
# [5] = Cytotoxicity against African green monkey Vero cells assessed as reduction in cell viability; format: toxicity, cell-based; details: African green monkey (Chlorocebus sabaeus)
# [6] = Microsomal stability in human liver microsomes assessed as half life; format: ADME, Microsome
# [7] = tested on: Mycobacterium tuberculosis; assay: Antimycobacterial activity against Mycobacterium tuberculosis H37Rv assessed as reduction in microbial growth after 7 days by alamar blue assay; format: functional; details: 168 h, time 7 day
# [8] = Metabolic stability in mouse liver microsomes assessed as intrinsic clearance; format: ADME, Microsome
# [9] = tested on: Mycobacterium tuberculosis; assay: Antimycobacterial activity against Mycobacterium tuberculosis H37Rv assessed as reduction in bacterial cell growth by resazurin reduction method; format: functional
# [10] = tested on: Mycobacterium tuberculosis; assay: Antimycobacterial activity against Mycobacterium tuberculosis H37Rv assessed as reduction in bacterial growth measured after 16 to 24 hrs by microplate alamar blue assay; format: functional; details: time 16-24 hrs
# [11] = biological target: Polyketide synthase Pks13 (Mycobacterium tuberculosis (strain ATCC 25618 / H37Rv), UniProt I6X8D2); assay: Inhibition of Mycobacterium tuberculosis recombinant Pks13 expressed in Escherichia coli BL21 (DE3) cells using 4-methylumbelliferyl heptanoate as substrate incubated for 3 hrs by […] based analysis
# [12] = tested on: Mycobacterium tuberculosis; assay: Antitubercular activity against Mycobacterium tuberculosis H37Rv assessed as reduction in microbial growth measured after 3 weeks by resazurin microplate reader assay; format: functional; details: 504 h
# [13] = tested on: Mycobacterium tuberculosis; assay: Antimycobacterial activity against Mycobacterium tuberculosis H37Rv ATCC 27294 assessed as reduction in bacterial growth after 21 days by serial dilution method; format: functional; details: H37Rv ATCC 27294, 504 h, time 21 day
# [14] = tested on: Mycobacterium tuberculosis; assay: Antibacterial activity against Mycobacterium tuberculosis H37Rv assessed as inhibition of cell growth; format: functional
# Sequence of Polyketide synthase Pks13 (I6X8D2 whole entry): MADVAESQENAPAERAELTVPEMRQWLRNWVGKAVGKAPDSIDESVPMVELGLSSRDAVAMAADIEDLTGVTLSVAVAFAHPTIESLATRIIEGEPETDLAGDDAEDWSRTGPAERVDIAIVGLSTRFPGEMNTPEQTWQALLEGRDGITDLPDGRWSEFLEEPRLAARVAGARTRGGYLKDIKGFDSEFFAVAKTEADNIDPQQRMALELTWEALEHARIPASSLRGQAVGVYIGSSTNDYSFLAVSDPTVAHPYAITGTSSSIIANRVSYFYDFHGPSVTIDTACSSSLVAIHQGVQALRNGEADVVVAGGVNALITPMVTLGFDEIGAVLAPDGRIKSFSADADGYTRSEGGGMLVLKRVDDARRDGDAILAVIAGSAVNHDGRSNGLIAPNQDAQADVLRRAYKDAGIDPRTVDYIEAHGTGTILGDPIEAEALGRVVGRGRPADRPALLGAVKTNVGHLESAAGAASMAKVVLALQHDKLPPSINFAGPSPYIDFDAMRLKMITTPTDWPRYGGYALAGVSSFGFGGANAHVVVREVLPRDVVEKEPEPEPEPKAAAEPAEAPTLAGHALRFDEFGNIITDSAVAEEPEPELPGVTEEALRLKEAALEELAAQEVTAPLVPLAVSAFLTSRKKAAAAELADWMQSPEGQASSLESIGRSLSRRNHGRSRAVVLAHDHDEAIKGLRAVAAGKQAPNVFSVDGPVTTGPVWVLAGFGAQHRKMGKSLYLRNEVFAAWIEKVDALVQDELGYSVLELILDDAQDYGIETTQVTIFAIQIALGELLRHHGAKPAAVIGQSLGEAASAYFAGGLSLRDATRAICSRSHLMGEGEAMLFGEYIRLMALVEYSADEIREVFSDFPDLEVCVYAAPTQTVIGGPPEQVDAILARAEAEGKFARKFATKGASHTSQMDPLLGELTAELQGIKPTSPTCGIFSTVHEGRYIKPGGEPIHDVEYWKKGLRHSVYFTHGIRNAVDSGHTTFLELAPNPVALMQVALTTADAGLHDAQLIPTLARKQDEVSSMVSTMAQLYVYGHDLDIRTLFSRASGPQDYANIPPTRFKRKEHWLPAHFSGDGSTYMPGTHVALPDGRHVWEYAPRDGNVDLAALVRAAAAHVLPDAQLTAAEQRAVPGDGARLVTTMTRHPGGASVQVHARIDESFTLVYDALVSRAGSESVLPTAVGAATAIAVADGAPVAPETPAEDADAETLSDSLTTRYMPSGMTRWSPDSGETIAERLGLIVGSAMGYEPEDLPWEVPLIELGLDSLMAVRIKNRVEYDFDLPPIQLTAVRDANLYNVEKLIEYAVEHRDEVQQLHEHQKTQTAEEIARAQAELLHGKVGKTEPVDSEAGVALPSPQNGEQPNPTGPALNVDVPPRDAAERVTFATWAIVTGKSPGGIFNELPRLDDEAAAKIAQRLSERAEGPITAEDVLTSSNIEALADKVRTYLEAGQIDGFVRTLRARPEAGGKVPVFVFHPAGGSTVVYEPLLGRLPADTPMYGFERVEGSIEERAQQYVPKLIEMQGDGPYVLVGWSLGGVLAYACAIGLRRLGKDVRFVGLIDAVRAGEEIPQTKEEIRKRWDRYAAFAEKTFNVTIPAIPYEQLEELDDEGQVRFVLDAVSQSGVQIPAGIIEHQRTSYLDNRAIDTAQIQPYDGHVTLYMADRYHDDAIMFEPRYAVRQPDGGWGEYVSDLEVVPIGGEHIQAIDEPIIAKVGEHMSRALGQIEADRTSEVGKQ
smiles,measurement,setting,value
C=CCCCCCCC[C@H]1C(=O)O[C@@H]1CCCCCNC(=O)c1ccc(N(C)C)cc1,MIC,[1],1.6 µM
COC(=O)c1c(NC(=O)c2c(F)c(F)c(F)c(F)c2F)sc2c1CCCCC2,MIC,[2],1 µM
same,MIC,[3],0.5 µM
same,IC50,[4],7.3 µM
same,IC50,[5],17.5 µM
CCOC(=O)c1c(NC(=O)c2c(F)c(F)c(F)c(F)c2F)sc(C(N)=O)c1C,MIC,[2],0.5 µM
same,MIC,[3],0.5 µM
CCOC(=O)c1c(-c2ccccc2)oc2ccc(O)c(CN3CCC(C)CC3)c12,half-life,[6],18.8 min
CCOC(=O)c1c(NC(=O)c2c(F)c(F)c(F)c(F)c2F)sc2c1CCN(CC)C2,MIC,[7],0.23 µM
CNC(=O)c1c(-c2ccc(O)cc2)oc2ccc(O)c(CN3CCCCC3)c12,CLH,[8],< 0.5 mL/min/g
CNC(=O)c1c(-c2ccccc2)oc2ccc(O)c(CN3CCCCC3)c12,MIC,[9],0.29 µM
O=c1cc(-c2ccccc2O)oc2ccc(O)c(CN3CCC3)c12,MIC,[10],0.45 µg/mL
same,IC50,[11],0.0143 µM
O=C(c1ccccc1)c1cc(Cl)ccc1OCc1nc(-c2ccc(C(F)(F)F)cc2)no1,MIC,[12],8 µg/mL
COc1ccccc1OCCNCC(O)COc1cccc2[nH]c3ccccc3c12 (stereo not drawn) [CARVEDILOL],MIC,[13],32 µg/mL
Cc1ccc(-c2cc(C(F)(F)F)nn2-c2ccc(S(N)(=O)=O)cc2)cc1 [CELECOXIB],MIC,[13],64 µg/mL
CCCCCCCCCCC[C@@H](C[C@@H]1OC(=O)[C@H]1CCCCCC)OC(=O)[C@H](CC(C)C)NC=O [ORLISTAT],MIC,[14],15 µM
CCN(CC)CCCC(C)Nc1c2ccc(Cl)cc2nc2ccc(OC)cc12 (stereo not drawn) [QUINACRINE],MIC,[13],64 µg/mL
